# Laboratory results: PMC7407491, “The Addition of a Synthetic LPS-Targeting Domain Improves Serum Stability While Maintaining Antimicrobial, Antibiofilm, and Cell Stimulating Properties of an Antimicrobial Peptide” (Biomolecules, 2020)
# Read-outs that look alike come from different tables or passages of the source.
# How the values were obtained:
# Assay in all cases: Antibiogram of clinical isolate
# Assay type in all cases: cell-based
# Design in all cases: key to Interpretation: R represents “resistant”; I represents “intermediate”; S represents “sensitive”
# [1] = system: Methicillin Resistant Staphylococcus aureus; conditions: veterinary clinical isolate
# Experimental: (§1) Veterinary clinical isolates, including Salmonella typhimurium, multi-drug resistant Escherichia coli, methicillin-resistant Staphylococcus aureus (MRSA), and methicillin-resistant Staphylococcus pseudointermedius (MRSP), were kindly provided by Dr. H. Cai (Department of Pathobiology, University of Guelph, ON, Canada). An antibiogram for these strains is available in the supplementary text (Table S1). Gram-negative strains were cultured in Luria−Bertani (LB) broth. Gram-positive strains were cultured in Tryptic soy broth (TSB). Both cultures were grown under aerobic conditions at 37 °C.
# (§2) 1 Where R represents “resistant”, I represents “intermediate” and S represents “sensitive”.
# (§3) 2 MIC represents the minimal inhibitory concentration of the antibiotic in mcg/mL.
# (§4) 3 mm represents the diameter zone of inhibition against antibiotic disc.
# [2] = system: Methicillin Resistant Staphylococcus pseudointermedius; conditions: veterinary clinical isolate
# Experimental: as §1, §2, §3, §4
# Escherichia coli = conditions: multi-drug resistant veterinary clinical isolate
# Experimental: as §1, §2, §3, §4
# [3] = Staphylococcus aureus, read-out: MIC
# [4] = Escherichia coli, read-out: MIC
Molecule,"MIC [1, 3] [µg/mL]",Interpretation [1],diameter zone of inhibition against antibiotic disc [1] [mm],"MIC ([2]; Staphylococcus, read-out: MIC) [µg/mL]",Interpretation [2],diameter zone of inhibition against antibiotic disc [2] [mm],MIC (Escherichia coli; [4]) [µg/mL],Interpretation (Escherichia coli),diameter zone of inhibition against antibiotic disc (Escherichia coli) [mm],MIC [2] [µg/mL],MIC (Escherichia coli) [µg/mL],MIC [1]
O=C(N[C@H](CO)[C@H](O)c1ccc([N+](=O)[O-])cc1)C(Cl)Cl [Chloramphenicol],4.5,S,26,,,,,,,,,
CC(=O)OCC1=C(C(=O)O)N2C(=O)[C@@H](NC(=O)Cc3cccs3)[C@H]2SC1 [Cephalothin],2.2,R,25,1.4,R,27,> 101,R,6,,,
CN1CCN(c2cc3c(cc2F)c(=O)c(C(=O)O)cn3-c2ccc(F)cc2)CC1 [Difloxacin],≤ 0.07,S,30,,,,,,,,,
C[C@@H]1CN(c2c(F)c(F)c3c(=O)c(C(=O)O)cn(C4CC4)c3c2F)C[C@H](C)N1 [Orbifloxacin],0.25,S,27,> 40,R,6,> 40,R,6,,,
NCC[C@H](O)C(=O)N[C@@H]1C[C@H](N)[C@@H](O[C@H]2O[C@H](CN)[C@@H](O)[C@H](O)[C@H]2O)[C@H](O)[C@H]1O[C@H]1O[C@H](CO)[C@@H](O)[C@H](N)[C@H]1O [Amikacin],9.5,S,18,,,,,,,,,
Titracillin-clavulanate,,R,15,,,,,,,,,
C=CC1=C(C(=O)O)N2C(=O)[C@@H](NC(=O)/C(=N\OCC(=O)O)c3csc(N)n3)[C@H]2SC1 [Cefixime],> 26,R,6,,,,,,,,,
CN(C)[C@@H]1C(O)=C(C(N)=O)C(=O)[C@@]2(O)C(O)=C3C(=O)c4c(O)cccc4[C@@](C)(O)[C@H]3C[C@@H]12 [Tetracycline],0.42,S,31,> 33,R,8,16,R,13,,,
Cc1onc(-c2ccccc2)c1C(=O)N[C@@H]1C(=O)N2[C@@H]1SC(C)(C)[C@@H]2C(=O)O [Oxacillin],,R,6,1.8,R,14,,,,,,
Trimethoprim-sulfamethoxazole,,S,31,,R,6,,R,6,> 10,> 10,<= 4.1 mcg/mL
CCN1CCN(C(=O)N[C@@H](C(=O)N[C@@H]2C(=O)N3[C@@H]2SC(C)(C)[C@@H]3C(=O)O)c2ccccc2)C(=O)C1=O [Piperacillin],,R,12,,,,,,,,,
C[C@@H](O)[C@H]1C(=O)N2C(C(=O)O)=C(SCCN=CN)C[C@H]12 [Imipenem],≤ 0.56,R,39,,,,,,,,,
CCN1CCN(c2cc3c(cc2F)c(=O)c(C(=O)O)cn3C2CC2)CC1 [Enrofloxacin],≤ 0.099,S,29,> 19,R,6,> 18,R,7,,,
CNC(C)C1CCC(N)C(OC2C(N)CC(N)C(OC3OCC(C)(O)C(NC)C3O)C2O)O1 (stereo not drawn) [Gentamicin],31,R,9,7.9,I,14,2.6,S,18,,,
Amoxicillin-clavulanate,,R,16,,R,24,,R,8,2.9,> 64,14 µg/mL
CC1(C)S[C@@H]2[C@H](NC(=O)[C@H](N)c3ccccc3)C(=O)N2[C@H]1C(=O)O [Ampicillin],19,R,11,12,R,13,> 46,R,6,,,
Polymixin-B,,R,9,,,,,,,,,
CC1(C)S[C@@H]2[C@H](NC(=O)[C@H](C(=O)O)c3ccsc3)C(=O)N2[C@H]1C(=O)O [Ticarcillin],,R,14,,,,,,,,,
CO[C@@]1(NC(=O)Cc2cccs2)C(=O)N2C(C(=O)O)=C(COC(N)=O)CS[C@@H]21 [Cefoxitin],,,,,R,24,> 69,R,6,,,
CN1CCN(c2c(F)cc3c(=O)c(C(=O)O)cn4c3c2OCN4C)CC1 [Marbofloxacin],,S,27,,R,6,,R,6,,,
CO/N=C(/C(=O)N[C@@H]1C(=O)N2C(C(=O)O)=C([C@@H]3CCCO3)CS[C@H]12)c1csc(N)n1 [Cefovecin],,,,,R,21,,R,6,,,
CC(C)(O/N=C(\C(=O)N[C@@H]1C(=O)N2C(C(=O)[O-])=C(C[n+]3ccccc3)CS[C@H]12)c1csc(N)n1)C(=O)O [Ceftazidime],41,R,13,,,,,,,,,
CC1(C)S[C@@H]2[C@H](NC(=O)C(C(=O)O)c3ccccc3)C(=O)N2[C@H]1C(=O)O (stereo partly drawn) [Carbenicillin],,R,15,,,,,,,,,
CCC[C@@H]1C[C@@H](C(=O)N[C@@H]([C@H]2O[C@H](SC)[C@H](O)[C@@H](O)[C@H]2O)[C@H](C)Cl)N(C)C1 [Clindamycin],> 10,R,6,> 10,R,7,,,,,,
CO/N=C(\C(=O)N[C@@H]1C(=O)N2C(C(=O)O)=C(CSC(=O)c3ccco3)CS[C@H]12)c1csc(N)n1 [Ceftiofur],3.9,R,19,,,,,,,,,
